Experimental data as given in patent US4017488A, “Process for preparing 7β-acylamino-7α-alkoxycephalosporins” (Sankyo Company Limited, priority 1974, dated 1977).
≈ marks a conversion by molar mass, not a printed value.

How the values were obtained:
Assay type in all cases: cell-based
[1] = system: broad range of disease germs; experiment: Antimicrobial activities (general statement); conditions: statement in words
[2] = system: Shigella flexneri Komagome; experiment: Minimal inhibitory concentration, III; conditions: read-out: Minimal inhibitory concentrations
From the text: (§1) Minimal inhibitory concentrations of various microorganisms mcg/ml
III: Shigella flexneri Komagome

[3] = system: Klebsiella neumoniae 846 (CER resistant); experiment: Minimal inhibitory concentration, IV B; conditions: read-out: Minimal inhibitory concentrations
From the text: as §1
IV B: Klebsiella neumoniae 846 (CER resistant)

[4] = system: Staphylococcus aureus 209p; experiment: Minimal inhibitory concentration, I A; conditions: read-out: Minimal inhibitory concentrations
From the text: as §1
*I A: Staphylococcus aureus 209p

[5] = system: Staphylococcus aureus (CP and PC resistant); experiment: Minimal inhibitory concentration, I B; conditions: read-out: Minimal inhibitory concentrations
From the text: as §1
I B: Staphylococcus aureus (CP and PC resistant)

Structure (SMILES) | anti-bacterial / antimicrobial activities [1] | also measured
C#CCSCC(=O)N[C@]1(OC)C(=O)N2C(C(=O)O)=C(COC(C)=O)CS[C@@H]21 [7β-propargylthioacetamido-7α-methoxy-3-acetoxymethyl-3-cephem-4-carboxylic acid] | excellent anti-bacterial activities against a broad range of disease germs | –
CO[C@@]1(NC(=O)CSCN=[N+]=[N-])C(=O)N2C(C(=O)O)=C(COC(C)=O)CS[C@@H]21 [7β-azidomethylthioacetamido-7α-methoxy-3-acetoxymethyl-3-cephem-4-carboxylic acid] | excellent anti-bacterial activities against a broad range of disease germs | –
CO[C@@]1(NC(=O)CSc2nncs2)C(=O)N2C(C(=O)O)=C(COC(C)=O)CS[C@@H]21 [7β-(1,3,4-thiadiazol-2-yl)thioacetamido-7α-methoxy-3-acetoxymethyl-3-cephem-4-carboxylic acid] | excellent anti-bacterial activities against a broad range of disease germs | –
CO[C@@]1(NC(=O)CSCC#N)C(=O)N2C(C(=O)O)=C(COC(C)=O)CS[C@@H]21 [7β-cyanomethylthioacetamido-7α-methoxy-3-acetoxymethyl-3-cephem-4-carboxylic acid] | excellent anti-bacterial activities against a broad range of disease germs | –
CO[C@@]1(NC(=O)CSc2ncc[nH]2)C(=O)N2C(C(=O)O)=C(CSc3nnnn3C)CS[C@@H]21 [7β-(imidazol-2-yl)thioacetamido-7α-methoxy-3-(1-methyl-1H-tetrazol-5-yl)thiomethyl-3-cephem-4-carboxylic acid] | excellent anti-bacterial activities against a broad range of disease germs | –
CO[C@@]1(NC(=O)CSCC#N)C(=O)N2C(C(=O)O)=C(COC(N)=O)CS[C@@H]21 [7β-cyanomethylthioacetamido-7α-methoxy-3-carbamoyloxymethyl-3-cephem-4-carboxylic acid] | excellent anti-bacterial activities against a broad range of disease germs | –
C#CCSCC(=O)N[C@]1(OC)C(=O)N2C(C(=O)O)=C(CSc3nnnn3C)CS[C@@H]21 [7β-propargylthioacetamido-7α-methoxy-3-(1-methyl-1H-tetrazol-5-yl)thiomethyl-3-cephem-4-carboxylic acid] | excellent anti-bacterial activities against a broad range of disease germs | –
CO[C@@]1(NC(=O)CSCC#N)C(=O)N2C(C(=O)O)=C(CSc3nnnn3C)CS[C@@H]21 [7β-cyanomethylthioacetamido-7α-methoxy-3-(1-methyl-1H-tetrazol-5-yl)thiomethyl-3-cephem-4-carboxylic acid] | excellent anti-bacterial activities against a broad range of disease germs | –
CO[C@@]1(NC(=O)CSc2nnc(C)s2)C(=O)N2C(C(=O)O)=C(CSc3nnnn3C)CS[C@@H]21 [7β-(5-methyl-1,3,4-thiadiazol-2-yl)thioacetamido-7α-methoxy-3-(1-methyl-1H-tetrazol-5-yl)thiomethyl-3-cephem-4-carboxylic acid] | excellent anti-bacterial activities against a broad range of disease germs | –
CO[C@@]1(NC(=O)CSc2nnc(C)s2)C(=O)N2C(C(=O)O)=C(COC(N)=O)CS[C@@H]21 [7β-(5-methyl-1,3,4-thiadiazol-2-yl)thioacetamido-7α-methoxy-3-carbamoyloxymethyl-3-cephem-4-carboxylic acid] | excellent anti-bacterial activities against a broad range of disease germs | –
CO[C@@]1(NC(=O)CSc2nncs2)C(=O)N2C(C(=O)O)=C(COC(N)=O)CS[C@@H]21 [7β-(1,3,4-thiadiazol-2-yl)thioacetamido-7α-methoxy-3-carbamoyloxymethyl-3-cephem-4-carboxylic acid] | excellent anti-bacterial activities against a broad range of disease germs | –
CO[C@@]1(NC(=O)CSc2nncs2)C(=O)N2C(C(=O)O)=C(CSc3nnnn3C)CS[C@@H]21 [7β-(1,3,4-thiadiazol-2-yl)thioacetamido-7α-methoxy-3-(1-methyl-1H-tetrazol-5-yl)thiomethyl-3-cephem-4-carboxylic acid] | excellent anti-bacterial activities against a broad range of disease germs | –
CO[C@@]1(NC(=O)CSc2nnc[nH]2)C(=O)N2C(C(=O)O)=C(COC(N)=O)CS[C@@H]21 [7β-(1,2,4-triazol-4H-3-yl)thioacetamido-7α-methoxy-3-carbamoyloxymethyl-3-cephem-4-carboxylic acid] | excellent anti-bacterial activities against a broad range of disease germs | –
CO[C@@]1(NC(=O)CSc2ncc[nH]2)C(=O)N2C(C(=O)O)=C(COC(C)=O)CS[C@@H]21 [7β-(imidazol-2-yl)thioacetamido-7α-methoxy-3-acetoxymethyl-3-cephem-4-carboxylic acid] | excellent anti-bacterial activities against a broad range of disease germs | –
CO[C@@]1(NC(=O)COc2ccon2)C(=O)N2C(C(=O)O)=C(COC(C)=O)CS[C@@H]21 [7β-(3-isoxazolyloxy)acetamido-7α-methoxy-3-acetoxymethyl-3-cephem-4-carboxylic acid] | excellent anti-bacterial activities against a broad range of disease germs | –
CO[C@@]1(NC(=O)COc2ccon2)C(=O)N2C(C(=O)O)=C(CSc3nnnn3C)CS[C@@H]21 [7β-(3-isoxazolyloxy)acetamido-7α-methoxy-3-(1-methyl-1H-tetrazol-5-yl)thiomethyl-3-cephem-4-carboxylic acid] | excellent anti-bacterial activities against a broad range of disease germs | MIC [2]: 3.1 µg/mL (≈ 6.41 µM); MIC [3]: > 400 µg/mL; MIC [4]: 0.2 µg/mL (≈ 0.414 µM); MIC [5]: 0.8 µg/mL (≈ 1.65 µM)
CO[C@@]1(NC(=O)CSc2ncc[nH]2)C(=O)N2C(C(=O)O)=C(COC(N)=O)CS[C@@H]21 [7β-(imidazol-2-yl)thioacetamido-7α-methoxy-3-carbamoyloxymethyl-3-cephem-4-carboxylic acid] | excellent anti-bacterial activities against a broad range of disease germs | –
C#CCSCC(=O)N[C@]1(OC)C(=O)N2C(C(=O)O)=C(COC(N)=O)CS[C@@H]21 [7β-propargylthioacetamido-7α-methoxy-3-carbamoyloxymethyl-3-cephem-4-carboxylic acid] | excellent anti-bacterial activities against a broad range of disease germs | –
CO[C@@]1(NC(=O)CSc2ccon2)C(=O)N2C(C(=O)O)=C(COC(C)=O)CS[C@@H]21 [7β-(3-isoxazolyl)thioacetamido-7α-methoxy-3-acetoxymethyl-3-cephem 4-carboxylic acid] | excellent anti-bacterial activities against a broad range of disease germs | –
